Consider 13 compounds from patent US6399574B1 (priority 1997, dated 2002).

Data set [1] concerns the target NMDA receptor (spermine-stimulated [^3H]MK-801 binding).
The conditions of data set [2]: mouse, tissue homogenate.

Where no end group is shown, it is not given here.

By IC50 is commonly meant the midpoint of a concentration-inhibition curve. The low end stands for higher potency, the high end for lower potency. In turn, “(A^7,10,14)1-15: Con G derivative, A at 7, 10, 14, residues 16-17 deleted (GEEELQANQALIRAK; ends and bridges not checked; UniProt P07231 81-97, looked up, variant E7A E10A E14A del16-17)” showed an IC50 in data set [1] of 34 nM.

As for “(A^7,10,14)6-17: Con G derivative, A at 7, 10, 14, residues 1-5 deleted (QANQALIRAKSN; ends and bridges not checked; UniProt P07231 81-97, looked up, variant del1-5 E7A E10A E14A)”, the “IC50 (μM)” value in data set [1] is “inactive”.

In data set [1], “A^7,10,14: Con G derivative, A at positions 7, 10 and 14 (GEEELQANQALIRAKSN; ends and bridges not checked; UniProt P07231 81-97, looked up, variant E7A E10A E14A)” came in with an IC50 of 88 nM.

Turning to “A^7,Y^10: Con G derivative, A at position 7 and Y at position 10 (GEEELQANQYLIREKSN; ends and bridges not checked; UniProt P07231 81-97, looked up, variant E7A E10Y)”, the IC50 in data set [1] was determined as 79 nM.

“(A^7,10,14)1-14: Con G derivative, A at 7, 10, 14, residues 15-17 deleted (GEEELQANQALIRA; ends and bridges not checked; UniProt P07231 81-97, looked up, variant E7A E10A E14A del15-17)” gave an IC50 in data set [1] of 232 nM.

Take “(A^7,10,14)3-17: Con G derivative, A at 7, 10, 14, residues 1-2 deleted (EELQANQALIRAKSN; ends and bridges not checked; UniProt P07231 81-97, looked up, variant del1-2 E7A E10A E14A)”: the “IC50 (μM)” value in data set [1] is “inactive”.

What is called half-life is how long it takes for the measured level to halve. Regarding `CC[C@H](C)[C@H](NC(=O)[C@H](CC(N)=O)NC(=O)[C@H](CCC(=O)O)NC(=O)[C@H](CCCNC(=N)N)NC(=O)[C@H](C)NC(=O)[C@H](CC(C)C)NC(=O)[C@H](CCC(=O)O)NC(=O)[C@H](C)NC(=O)[C@H](C)NC(=O)[C@H](CCSC)NC(=O)[C@H](CCCCN)NC(=O)[C@H](C)NC(=O)[C@@H](NC(=O)[C@H](CCC(=O)O)NC(=O)[C@H](CCC(=O)O)NC(=O)[C@H](CCC(=O)O)NC(=O)CN)C(C)C)C(=O)N[C@@H](C)C(=O)N[C@@H](CCCCN)C(=O)NCC(=O)N[C@H]1CSSC[C@@H](C(=O)N[C@@H](Cc2ccc(O)cc2)C(=O)N2CCC[C@H]2C(=O)O)NC(=O)[C@H](CC(N)=O)NC(=O)[C@H](C(C)C)NC(=O)[C@H](CCCCN)NC1=O` [ECon R], the half-life in data set [2] was determined as 2.4 min.

On to “(A^7,10)1-13: Con G derivative, A at 7 and 10, residues 14-17 deleted (GEEELQANQALIR; ends and bridges not checked; UniProt P07231 81-97, looked up, variant E7A E10A del14-17)”, for which, in data set [1], the IC50 worked out at 253 nM.

Consider “(A^7,10,14)2-17: Con G derivative, A at 7, 10, 14, residue 1 deleted (EEELQANQALIRAKSN; ends and bridges not checked; UniProt P07231 81-97, looked up, variant del1-1 E7A E10A E14A)”, for which the “IC50 (μM)” value in data set [1] is “inactive”.

With “(A^7,10,14)4-17: Con G derivative, A at 7, 10, 14, residues 1-3 deleted (ELQANQALIRAKSN; ends and bridges not checked; UniProt P07231 81-97, looked up, variant del1-3 E7A E10A E14A)”, in data set [1], the “IC50 (μM)” value was “inactive”.

As for “(A^7,10)1-12: Con G derivative, A at 7 and 10, residues 13-17 deleted (GEEELQANQALI; ends and bridges not checked; UniProt P07231 81-97, looked up, variant E7A E10A del13-17)”, the IC50 in data set [1] stood at 300 nM.

For “(A^7,10,14)5-17: Con G derivative, A at 7, 10, 14, residues 1-4 deleted (LQANQALIRAKSN; ends and bridges not checked; UniProt P07231 81-97, looked up, variant del1-4 E7A E10A E14A)”, in data set [1], the “IC50 (μM)” value was “inactive”.

For “(A^7,10,14)1-16: Con G derivative, A at 7, 10, 14, residue 17 deleted (GEEELQANQALIRAKS; ends and bridges not checked; UniProt P07231 81-97, looked up, variant E7A E10A E14A del17-17)”, the IC50 in data set [1] came out at 37 nM.
